Experiment [1] addresses T1, Inner pocket mutant α7β2‐nAChR (β2[S108T, V111L,W120Y]) (Homo sapiens, UniProt P17787+P36544, S133T/V136L/W145Y).
T1 construct: expressed in transfected cells; host or cells: Xenopus laevis oocytes, cRNA injection
As to the kind of experiment: ACh concentration‐response curve, TEVC, inner pocket α7β2‐nAChR. Conditions: mean ± SEM of 15–19 oocytes. The experiment is classed as cell-based.

In experiment [2] the target is T2, Outer pocket mutant α7β2‐nAChR (β2[K79T,F119Q]) (Homo sapiens, UniProt P17787+P36544, F144Q/K104T).
T2 construct: expressed in transfected cells; host or cells: Xenopus laevis oocytes, cRNA injection
The experiment in a line: ACh concentration‐response curve, TEVC, outer pocket α7β2‐nAChR. Conditions: mean ± SEM of 15–19 oocytes. It is filed as cell-based.

In a further experiment the target is T3, human α7β2‐nAChR (Homo sapiens, UniProt P17787+P36544).
T3 construct: expressed in transfected cells; host or cells: Xenopus laevis oocytes, cRNA injection
The experiment in a line: cell-based.

The target in a further experiment is T4, human α7‐only‐nAChR (Homo sapiens, UniProt P36544).
T4 construct: expressed in transfected cells; host or cells: Xenopus laevis oocytes, cRNA injection
The experiment in a line: cell-based. Conditions: SEM; for koff: read-out: k off α7‐only; for kon: read-out: k on α7‐only.

The target of the next experiment is T5, α3β4‐nAChR (Homo sapiens, UniProt P30926+P32297).
T5 construct: expressed in transfected cells; host or cells: Xenopus laevis oocytes, cRNA injection
It is filed as cell-based.

The target of experiment [3] is T6, Inner pocket mutant α7β2‐nAChR (β2[S108T, V111L,W120Y] at both α7(+)/(−)β2 subunit interfaces) (Homo sapiens, UniProt P17787+P36544, S133T/V136L/W145Y).
T6 construct: expressed in transfected cells; host or cells: Xenopus laevis oocytes, cRNA injection
As to the kind of experiment: cell-based. Conditions: SEM; for koff: read-out: k off, “Inner pocket” α7β2‐nAChR; for kon: read-out: k on, “Inner pocket” α7β2‐nAChR.

The next experiment deals with T7, α9α10‐nAChR (Homo sapiens, UniProt Q9GZZ6+Q9UGM1).
T7 construct: expressed in transfected cells; host or cells: Xenopus laevis oocytes, cRNA injection
As to the kind of experiment: cell-based.

Experiment [4] has as its target T8, Outer pocket mutant α7β2‐nAChR (β2[K79T,F119Q] at both α7(+)/(−)β2 subunit interfaces) (Homo sapiens, UniProt P17787+P36544, F144Q/K104T).
T8 construct: expressed in transfected cells; host or cells: Xenopus laevis oocytes, cRNA injection
The experiment in a line: cell-based. Conditions: SEM; for koff: read-out: k off, “Outer pocket” α7β2‐nAChR; for kon: read-out: k on, “Outer pocket” α7β2‐nAChR.

Another experiment addresses T9, α6/3β2β3‐nAChR (Homo sapiens, UniProt P17787+P32297+Q05901+Q15825).
T9 construct: expressed in transfected cells; host or cells: Xenopus laevis oocytes, cRNA injection
The experiment is classed as cell-based.

A further experiment concerns the target T10, α3β2‐nAChR (Homo sapiens, UniProt P17787+P32297).
T10 construct: expressed in transfected cells; host or cells: Xenopus laevis oocytes, cRNA injection
It is filed as cell-based.

[5] abbreviates: ACh 10 μM – 10 mM, half‐log steps, 3 s, 60 s apart.
The mark [6] stands for this setting: read-out: k off, Unaltered α7β2‐nAChR, SEM.
The mark [7] stands for this setting: read-out: k on, Unaltered α7β2‐nAChR, SEM.

7 molecules from publication PMC10782225 (The FASEB Journal, 2023) can be followed below.

The structures appear in SMILES notation. Like-named read-outs stand apart in the source and are kept apart here. A value given as a limit tells only on which side of the number the result lay.

T6 sequence (P17787 26-502 S133T/V136L/W145Y): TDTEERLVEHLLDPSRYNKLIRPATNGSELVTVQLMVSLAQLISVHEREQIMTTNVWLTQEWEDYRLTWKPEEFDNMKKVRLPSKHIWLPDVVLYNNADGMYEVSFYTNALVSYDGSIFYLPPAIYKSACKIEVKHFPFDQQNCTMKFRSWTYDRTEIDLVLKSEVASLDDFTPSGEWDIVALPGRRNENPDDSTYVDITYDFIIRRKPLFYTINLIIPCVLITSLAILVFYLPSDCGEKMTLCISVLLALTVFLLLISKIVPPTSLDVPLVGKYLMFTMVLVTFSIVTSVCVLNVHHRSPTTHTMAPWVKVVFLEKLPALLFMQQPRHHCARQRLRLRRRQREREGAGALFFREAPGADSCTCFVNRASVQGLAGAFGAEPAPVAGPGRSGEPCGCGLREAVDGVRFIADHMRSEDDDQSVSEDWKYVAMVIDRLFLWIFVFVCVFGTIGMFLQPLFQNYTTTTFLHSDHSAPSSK
T6 sequence (P36544 23-502): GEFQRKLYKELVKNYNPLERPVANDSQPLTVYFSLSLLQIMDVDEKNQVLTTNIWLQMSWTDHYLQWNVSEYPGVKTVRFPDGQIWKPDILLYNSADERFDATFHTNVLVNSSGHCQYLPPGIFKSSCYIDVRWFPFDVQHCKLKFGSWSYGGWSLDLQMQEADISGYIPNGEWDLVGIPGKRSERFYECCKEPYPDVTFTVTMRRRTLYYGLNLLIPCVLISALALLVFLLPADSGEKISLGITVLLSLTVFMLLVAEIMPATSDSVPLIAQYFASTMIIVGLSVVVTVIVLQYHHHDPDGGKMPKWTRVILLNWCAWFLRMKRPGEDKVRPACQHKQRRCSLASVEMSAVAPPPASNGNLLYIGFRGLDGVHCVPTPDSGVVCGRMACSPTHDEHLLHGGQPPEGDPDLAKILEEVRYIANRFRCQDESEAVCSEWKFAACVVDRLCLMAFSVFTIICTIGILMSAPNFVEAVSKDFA
T8 sequence (P17787 26-502 K104T/F144Q): as the sequence (P17787 26-502 S133T/V136L/W145Y) above, with K79T, T108S, L111V, F119Q, Y120W counted along it
T8 sequence (P36544 23-502): as the sequence (P36544 23-502) above
T4 sequence (P36544 23-502 limits assumed): as the sequence (P36544 23-502) above
T3 sequence (P36544 23-502 limits assumed): as the sequence (P36544 23-502) above
T3 sequence (P17787 26-502 limits assumed): as the sequence (P17787 26-502 S133T/V136L/W145Y) above, with T108S, L111V, Y120W counted along it
T2 sequence (P36544 23-502): as the sequence (P36544 23-502) above
T2 sequence (P17787 26-502 K104T/F144Q): as the sequence (P17787 26-502 S133T/V136L/W145Y) above, with K79T, T108S, L111V, F119Q, Y120W counted along it
T1 sequence (P36544 23-502): as the sequence (P36544 23-502) above
T1 sequence (P17787 26-502 S133T/V136L/W145Y): as the sequence (P17787 26-502 S133T/V136L/W145Y) above
T5 sequence (P30926 22-498): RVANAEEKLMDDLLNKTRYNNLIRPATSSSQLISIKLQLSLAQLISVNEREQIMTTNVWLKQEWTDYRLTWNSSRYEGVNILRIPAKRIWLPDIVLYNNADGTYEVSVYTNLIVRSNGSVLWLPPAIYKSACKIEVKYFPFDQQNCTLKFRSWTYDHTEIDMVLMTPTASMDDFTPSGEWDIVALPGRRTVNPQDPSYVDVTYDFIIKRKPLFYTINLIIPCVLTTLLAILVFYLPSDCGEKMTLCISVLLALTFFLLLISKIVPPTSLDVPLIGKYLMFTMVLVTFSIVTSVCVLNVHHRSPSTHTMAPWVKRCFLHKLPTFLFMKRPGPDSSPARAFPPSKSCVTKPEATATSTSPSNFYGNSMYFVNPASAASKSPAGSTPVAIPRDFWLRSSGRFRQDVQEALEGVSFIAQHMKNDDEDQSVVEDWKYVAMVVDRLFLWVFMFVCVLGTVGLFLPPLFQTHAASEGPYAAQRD
T5 sequence (P32297 32-505): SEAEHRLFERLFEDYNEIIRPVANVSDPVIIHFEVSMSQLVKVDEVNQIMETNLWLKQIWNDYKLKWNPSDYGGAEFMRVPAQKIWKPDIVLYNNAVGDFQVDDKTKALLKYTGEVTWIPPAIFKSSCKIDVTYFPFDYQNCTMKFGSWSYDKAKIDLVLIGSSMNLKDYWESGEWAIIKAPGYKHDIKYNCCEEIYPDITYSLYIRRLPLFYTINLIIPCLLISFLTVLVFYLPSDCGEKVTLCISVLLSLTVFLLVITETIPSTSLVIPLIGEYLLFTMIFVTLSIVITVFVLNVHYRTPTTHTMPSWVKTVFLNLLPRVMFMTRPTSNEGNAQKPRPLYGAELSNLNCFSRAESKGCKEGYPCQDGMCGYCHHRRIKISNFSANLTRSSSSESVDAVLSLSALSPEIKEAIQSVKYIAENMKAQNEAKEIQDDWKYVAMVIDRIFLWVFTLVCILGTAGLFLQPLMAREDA
T7 sequence (Q9UGM1 26-479 limits assumed): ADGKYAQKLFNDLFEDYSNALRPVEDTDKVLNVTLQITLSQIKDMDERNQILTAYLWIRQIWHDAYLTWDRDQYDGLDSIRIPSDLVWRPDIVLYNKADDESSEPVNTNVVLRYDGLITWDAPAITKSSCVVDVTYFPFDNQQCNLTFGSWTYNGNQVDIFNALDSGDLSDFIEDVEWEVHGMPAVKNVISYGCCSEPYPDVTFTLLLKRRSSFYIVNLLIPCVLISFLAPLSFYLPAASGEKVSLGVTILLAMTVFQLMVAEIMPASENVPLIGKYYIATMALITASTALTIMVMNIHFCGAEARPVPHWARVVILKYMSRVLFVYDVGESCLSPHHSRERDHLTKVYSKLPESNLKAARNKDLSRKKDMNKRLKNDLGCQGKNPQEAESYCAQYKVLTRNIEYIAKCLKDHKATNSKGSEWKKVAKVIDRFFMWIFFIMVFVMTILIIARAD
T7 sequence (Q9GZZ6 25-450): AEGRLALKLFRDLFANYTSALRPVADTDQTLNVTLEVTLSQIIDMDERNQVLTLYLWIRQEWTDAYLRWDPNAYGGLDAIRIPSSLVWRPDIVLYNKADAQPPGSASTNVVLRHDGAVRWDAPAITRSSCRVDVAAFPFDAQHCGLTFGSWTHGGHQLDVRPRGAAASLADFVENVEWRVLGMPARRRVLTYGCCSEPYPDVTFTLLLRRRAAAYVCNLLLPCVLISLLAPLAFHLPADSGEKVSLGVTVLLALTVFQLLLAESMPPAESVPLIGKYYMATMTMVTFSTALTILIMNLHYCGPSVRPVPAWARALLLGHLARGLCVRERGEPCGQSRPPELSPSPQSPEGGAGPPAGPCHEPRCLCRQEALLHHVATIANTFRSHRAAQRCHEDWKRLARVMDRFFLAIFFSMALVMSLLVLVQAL
T9 sequence (P17787 26-502): as the sequence (P17787 26-502 S133T/V136L/W145Y) above, with T108S, L111V, Y120W counted along it
T9 sequence (Q15825+P32297 fused with the stated changes): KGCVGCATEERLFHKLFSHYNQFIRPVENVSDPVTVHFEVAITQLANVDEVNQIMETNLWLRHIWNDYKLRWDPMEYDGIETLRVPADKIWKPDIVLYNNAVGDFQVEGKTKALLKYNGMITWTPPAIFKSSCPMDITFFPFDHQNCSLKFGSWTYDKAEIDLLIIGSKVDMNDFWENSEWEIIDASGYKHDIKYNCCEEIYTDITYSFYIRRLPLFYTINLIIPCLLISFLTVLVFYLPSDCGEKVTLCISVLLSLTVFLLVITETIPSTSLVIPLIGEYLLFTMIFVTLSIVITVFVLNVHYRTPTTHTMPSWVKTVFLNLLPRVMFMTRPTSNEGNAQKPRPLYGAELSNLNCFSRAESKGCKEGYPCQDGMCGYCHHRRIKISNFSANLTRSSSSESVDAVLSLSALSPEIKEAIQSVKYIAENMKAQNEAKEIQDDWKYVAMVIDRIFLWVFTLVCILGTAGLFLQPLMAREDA
T9 sequence (Q05901 25-458): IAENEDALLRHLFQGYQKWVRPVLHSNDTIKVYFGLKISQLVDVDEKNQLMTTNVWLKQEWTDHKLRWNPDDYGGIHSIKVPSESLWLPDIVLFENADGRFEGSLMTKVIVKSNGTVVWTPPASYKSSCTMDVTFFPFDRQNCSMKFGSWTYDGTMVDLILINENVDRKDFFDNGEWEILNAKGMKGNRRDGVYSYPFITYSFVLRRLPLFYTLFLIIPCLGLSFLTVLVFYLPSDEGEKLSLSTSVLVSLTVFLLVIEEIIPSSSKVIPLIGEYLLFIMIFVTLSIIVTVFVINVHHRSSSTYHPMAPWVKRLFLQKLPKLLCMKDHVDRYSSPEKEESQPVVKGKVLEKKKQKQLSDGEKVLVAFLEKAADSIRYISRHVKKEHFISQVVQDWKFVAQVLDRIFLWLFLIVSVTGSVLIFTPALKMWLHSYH
T10 sequence (P17787 26-502): as the sequence (P17787 26-502 S133T/V136L/W145Y) above, with T108S, L111V, Y120W counted along it
T10 sequence (P32297 32-505): as the sequence (P32297 32-505) above

For the molecule `CC(=O)OCC[N+](C)(C)C` [ACh, acetylcholine], the “Imax, maximum function induced by ACh, inner pocket α7β2‐nAChR” value in experiment [1] (setting [5]) is given as 1539 ± 193 nA. The “hillslope (nH), inner pocket α7β2‐nAChR” value in [1] (logistic fit per oocyte) came out at 0.93 ± 0.06. Further, the “Imax, maximum function induced by ACh, outer pocket α7β2‐nAChR” value in experiment [2] (setting [5]) was 1401 ± 137 nA. Moreover, the “hillslope (nH), outer pocket α7β2‐nAChR” value in experiment [2] (logistic fit per oocyte) is 1.17 ± 0.12.

As a reminder, the Kd is a measure of binding affinity in units of concentration. The low end stands for higher affinity, the high end for lower affinity. Consider `CC(C)C[C@@H]1NC(=O)[C@H](Cc2ccccc2)NC(=O)[C@@H]2CSSC[C@H](NC(=O)CN)C(=O)N[C@@H](CSSC[C@@H](C(N)=O)NC(=O)[C@H](Cc3ccc(O)cc3)NC(=O)[C@H](CCC(=O)O)NC(=O)[C@@H]3CCCN3C(=O)[C@H](CC(N)=O)NC(=O)[C@H](CC(N)=O)NC1=O)C(=O)N[C@@H](CO)C(=O)N[C@@H](Cc1c[nH]cn1)C(=O)N1CCC[C@H]1C(=O)N1CCC[C@H]1C(=O)N2` [[D14E]], for which the Kd on human α7β2‐nAChR (K d α7β2, SEM) was determined as 1.4 ± 0.3 nM; at human α7‐only‐nAChR it was 2 ± 0.6 nM. Also, the koff at human α7β2‐nAChR (read-out: k off α7β2, SEM) is 6e-05 s⁻¹; at human α7‐only‐nAChR, 0.000111 s⁻¹. In addition, the kon on human α7β2‐nAChR (read-out: k on α7β2, SEM) was 49500 M⁻¹ s⁻¹; on human α7‐only‐nAChR it was 57500 M⁻¹ s⁻¹.

With `CC(C)C[C@@H]1NC(=O)[C@H](CC(C)C)NC(=O)[C@@H]2CSSC[C@H](NC(=O)CN)C(=O)N[C@@H](CSSC[C@@H](C(N)=O)NC(=O)[C@H](Cc3ccc(O)cc3)NC(=O)[C@H](CC(=O)O)NC(=O)[C@@H]3CCCN3C(=O)[C@H](CC(N)=O)NC(=O)[C@H](CC(N)=O)NC1=O)C(=O)N[C@@H](CO)C(=O)N[C@@H](Cc1c[nH]cn1)C(=O)N1CCC[C@H]1C(=O)N1CCC[C@H]1C(=O)N2` [[F9L]], the dissociation constant (Kd) amounted to 15 ± 2 nM at human α7β2‐nAChR (K d α7β2, SEM) and 20 ± 3 nM on human α7‐only‐nAChR. Moreover, the koff on human α7β2‐nAChR (read-out: k off α7β2, SEM) is 0.000292 s⁻¹; on human α7‐only‐nAChR, 0.000637 s⁻¹. In addition, the kon at human α7β2‐nAChR (read-out: k on α7β2, SEM) was 20500 M⁻¹ s⁻¹; at human α7‐only‐nAChR it was 32800 M⁻¹ s⁻¹. For the same molecule, on α3β4‐nAChR, the “block of ACh‐induced function, α3β4‐nAChR” value is listed as over 90%.

Broadly, the IC50 is the point on the concentration scale where inhibition reaches its midpoint. A high value points to lower potency. Consider `NCC(=O)N[C@H]1CSSC[C@@H]2NC(=O)[C@@H]3CCCN3C(=O)[C@@H]3CCCN3C(=O)[C@H](Cc3c[nH]cn3)NC(=O)[C@H](CO)NC(=O)[C@H](CSSC[C@@H](C(N)=O)NC(=O)[C@H](Cc3ccc(O)cc3)NC(=O)[C@H](CC(=O)O)NC(=O)[C@@H]3CCCN3C(=O)[C@H](CC(N)=O)NC(=O)[C@H](CC(N)=O)NC(=O)[C@H](Cc3ccc(O)cc3)NC(=O)[C@H](Cc3ccccc3)NC2=O)NC1=O` [[L10Y]], for which the Kd in experiment [3] was 24 ± 3 nM; at human α7β2‐nAChR (K d α7β2), 1 to 2 nM; on human α7β2‐nAChR (K d α7β2, SEM), 12 ± 3 nM; at human α7β2‐nAChR (K d, Unaltered α7β2‐nAChR, SEM) it was 20 ± 4 nM; in [4], 28 ± 4 nM; on human α7‐only‐nAChR, 671 ± 136 nM. Also, the koff in experiment [3] is 0.000537 s⁻¹; at human α7β2‐nAChR (read-out: k off α7β2, SEM) it was 0.000462 s⁻¹; on human α7β2‐nAChR (setting [6]) it was 0.000508 s⁻¹; in experiment [4], 0.00064 s⁻¹; on human α7‐only‐nAChR, 0.0044 s⁻¹. Also, the kon is 21700 M⁻¹ s⁻¹ in experiment [3]; 50200 M⁻¹ s⁻¹ on human α7β2‐nAChR (read-out: k on α7β2, SEM); 30700 M⁻¹ s⁻¹ at human α7β2‐nAChR (setting [7]); 24000 M⁻¹ s⁻¹ in experiment [4]; 6670 M⁻¹ s⁻¹ on human α7‐only‐nAChR. The same molecule returned an IC50 against α9α10‐nAChR of over 300 nM.

With `CC(C)C[C@@H]1NC(=O)[C@H](Cc2ccccc2)NC(=O)[C@@H]2CSSC[C@H](NC(=O)CN)C(=O)N[C@@H](CSSC[C@@H](C(N)=O)NC(=O)[C@H](Cc3ccc(O)cc3)NC(=O)[C@H](CC(=O)O)NC(=O)[C@@H]3CCCN3C(=O)[C@H](Cc3c[nH]cn3)NC(=O)[C@H](CC(N)=O)NC1=O)C(=O)N[C@@H](CO)C(=O)N[C@@H](Cc1c[nH]cn1)C(=O)N1CCC[C@H]1C(=O)N1CCC[C@H]1C(=O)N2` [[N12H]], the dissociation constant Kd at human α7β2‐nAChR (K d α7β2, SEM) is 13 ± 2 nM; at human α7‐only‐nAChR, 81 ± 19 nM. The koff on human α7β2‐nAChR (read-out: k off α7β2, SEM) is 0.000308 s⁻¹; on human α7‐only‐nAChR it was 0.0011 s⁻¹. The kon is 24500 M⁻¹ s⁻¹ on human α7β2‐nAChR (read-out: k on α7β2, SEM) and 18300 M⁻¹ s⁻¹ at human α7‐only‐nAChR.

Consider `CC(C)C[C@@H]1NC(=O)[C@H](Cc2ccccc2)NC(=O)[C@@H]2CSSC[C@H](NC(=O)CN)C(=O)N[C@@H](CSSC[C@@H](C(N)=O)NC(=O)[C@H](Cc3ccc(O)cc3)NC(=O)[C@H](CC(=O)O)NC(=O)[C@@H]3CCCN3C(=O)[C@H](CC(N)=O)NC(=O)[C@H](CC(N)=O)NC1=O)C(=O)N[C@@H](CCCNC(=N)N)C(=O)N[C@@H](Cc1c[nH]cn1)C(=O)N1CCC[C@H]1C(=O)N1CCC[C@H]1C(=O)N2` [[S4R]], for which the Kd turned out to be 5.31 ± 1.04 nM in experiment [3]; 0.83 ± 0.05 nM at human α7β2‐nAChR (K d α7β2, SEM); 1.9 ± 0.21 nM at human α7β2‐nAChR (K d, Unaltered α7β2‐nAChR, SEM); 6.74 ± 2.67 nM in [4]; 15 ± 6 nM at human α7‐only‐nAChR. The koff in experiment [3] was 0.000232 s⁻¹; on human α7β2‐nAChR (read-out: k off α7β2, SEM), 9.33e-05 s⁻¹; at human α7β2‐nAChR (setting [6]), 0.000124 s⁻¹; in experiment [4], 0.000255 s⁻¹; at human α7‐only‐nAChR, 0.000597 s⁻¹. The kon was 45500 M⁻¹ s⁻¹ in experiment [3]; 112000 M⁻¹ s⁻¹ on human α7β2‐nAChR (read-out: k on α7β2, SEM); 67500 M⁻¹ s⁻¹ on human α7β2‐nAChR (setting [7]); 64300 M⁻¹ s⁻¹ in [4]; 56700 M⁻¹ s⁻¹ on human α7‐only‐nAChR.

Turning to `CC(C)C[C@@H]1NC(=O)[C@H](Cc2ccccc2)NC(=O)[C@@H]2CSSC[C@H](NC(=O)CN)C(=O)N[C@@H](CSSC[C@@H](C(N)=O)NC(=O)[C@H](CC(=O)O)NC(=O)[C@H](CC(=O)O)NC(=O)[C@@H]3CCCN3C(=O)[C@H](CC(N)=O)NC(=O)[C@H](CC(N)=O)NC1=O)C(=O)N[C@@H](CO)C(=O)N[C@@H](Cc1c[nH]cn1)C(=O)N1CCC[C@H]1C(=O)N1CCC[C@H]1C(=O)N2` [[Y15D]], at α6/3β2β3‐nAChR, the “block of ACh‐induced function, α6/3β2β3‐nAChR” value is on record as “≈ 35%”. In addition, the “block of ACh‐induced function, α3β2‐nAChR” value at α3β2‐nAChR was “≈ 50%”. Besides, the dissociation constant (Kd) at human α7β2‐nAChR (K d α7β2, SEM) was 9.9 ± 2.1 nM; on human α7‐only‐nAChR, 27 ± 3 nM. Also, the koff at human α7β2‐nAChR (read-out: k off α7β2, SEM) is 0.000298 s⁻¹; at human α7‐only‐nAChR, 0.00112 s⁻¹. The kon at human α7β2‐nAChR (read-out: k on α7β2, SEM) is 43300 M⁻¹ s⁻¹; on human α7‐only‐nAChR, 54800 M⁻¹ s⁻¹.
